Reference: US20240285765A1, “PHTHALOCYANINE DYE COMPOUNDS, CONJUGATES AND METHODS OF USE THEREOF” (Rakuten Medical, Inc., priority 2021, published 2024)

Legend:
[1] = Singlet oxygen quantum yield, indirect method with chemical quencher (DPBF or ADMA); type: physicochemical
Excerpt: Photogeneration quantum yields of singlet oxygen (ΦΔ) were obtained by an indirect method, using either diphenylisobenzofuran (DBPF) or anthracene-9,10-bis-methylmalonate (ADMA) as chemical quenchers in either N,N-dimethylformamide or aqueous media, respectively. Typically, a solution of the phthalocyanine and the quencher was irradiated with a red LED lamp (670 nm) at 5 mW/cm^2. The initial DPBF or ADMA concentrations were kept the same for both the reference and the test samples. The degradation of the DPBF band at 414 nm or ADMA at 401 nm was monitored in a Varian Cary® 50 UV-Vis spectrophotometer, every five seconds in the case of DPBF (up to 30 seconds) and every minute in the case of ADMA (up to five minutes). ZnPc (ΦΔ=0.67) and AlPcSmix (ΦΔ=0.42) were used as references in N,N-dimethylformamide or aqueous media, respectively.
The relative method shown by Eq. (1) was employed for calculations of the ΦΔ:
[formula] • where ΦΔ and ΦΔref are the ^1O2 generation quantum yields for the sample and reference, respectively, m and mref are the DPBF or ADMA photobleaching rates in the presence of the phthalocyanine of the invention and the reference, respectively, and I and Iref are the rates of light absorption by the phthalocyanine derivative and reference, respectively. Concentrations of the test compound and reference were chosen such that their respective absorptions at the irradiation wavelength were the same.

[2] = Kinetic (aqueous) solubility in pH 7.4 DPBS, UV quantification; settings: for solubility kinetic at 4 h: pH 7.4, aqueous buffer, kinetic from dmso stock; for Solubility* (kinetic solubility): pH 7.4 DPBS, 4 hours, room temperature (25° C.)
[3] = quencher ADMA, aqueous media, 670 nm LED 5 mW/cm^2, reference AlPcSmix

| SMILES | ΦΔ (singlet oxygen quantum yield) [1, 3] | Solubility* (kinetic solubility) [2] | solubility kinetic at 4 h ([2]; 25 °C) [µg/mL] | also measured |
| --- | --- | --- | --- | --- |
| COCCOCCOCC(=O)NCCC[Si](C)(C)O[Si-2]123(O[Si](C)(C)CCCNC(=O)CCCCC(=O)O)n4c5c6ccccc6c4N=C4c6ccccc6C(=[N+]41)N=c1c4ccccc4c(n12)=NC1=[N+]3C(=N5)c2ccccc21 [Example 1, 6-((3-(dimethyl((19-((15-methyl-10-oxo-2,5,8-trioxa-11-aza-15-silahexadecan-15-yl)oxy)-19H-6,11-(azeno)-17,21-(azeno[3]episoindoloazeno)benzo[7,8][1,3,5,10]tetraaza[2]silacycloundecino[4,3-a:11,1-a′]diisoindol-19-yl)oxy)silyl)propyl)amino)-6-oxohexanoic acid] | – | – | – | ΦΔ (singlet oxygen quantum yield) ([1]; quencher DPBF, N,N-dimethylformamide, 670 nm LED 5 mW/cm^2, reference ZnPc): A (A: ≤0.5) |
| COCCOCCOCCN(CCCOC(=O)NCCC[Si](C)(C)O[Si-2]123(O[Si](C)(C)CCCNC(=O)COCC(=O)O)n4c5c6ccccc6c4N=C4c6ccccc6C(=[N+]41)N=c1c4ccccc4c(n12)=NC1=[N+]3C(=N5)c2ccccc21)CCOCCOCCOC [Example 3, 2-(2-((3-(((19-((11-(2-(2-(2-methoxyethoxy)ethoxy)ethyl)-21-methyl-16-oxo-2,5,8,15-tetraoxa-11,17-diaza-21-siladocosan-21-yl)oxy)-19H-6,11-(azeno)-17,21-(azeno[3]episoindoloazeno)benzo[7,8][1,3,5,10]tetraaza[2]silacycloundecino[4,3-a:11,1-a′]diisoindol-19-yl)oxy)dimethylsilyl)propyl)amino)-2-oxoethoxy)acetic acid] | – | – | – | solubility kinetic at 4 h ([2]; Dulbecco's phosphate-buffered saline (DPBS), pH 7.4, 25 °C): < 1 µg/mL |
| C[Si](C)(CCCNC(=O)CCC[N+](CCCS(=O)(=O)[O-])(CCCS(=O)(=O)O)CCCS(=O)(=O)O)O[Si]1(O[Si](C)(C)CCCNC(=O)COCC(=O)O)n2c3c4ccccc4c2N=C2N=C(N=c4c5ccccc5c(n41)=NC1=NC(=N3)c3ccccc31)c1ccccc12.N (stereo not drawn) [Example 5, Ammonium 3-((4-((3-(((19-(((3-(2-(carboxymethoxy)acetamido)propyl)dimethylsilyl)oxy)-19H-6,11-(azeno)-17,21-(azeno[3]episoindoloazeno)benzo[7,8][1,3,5,10]tetraaza[2]silacycloundecino[4,3-a:11,1-a′]diisoindol-19-yl)oxy)dimethylsilyl)propyl)amino)-4-oxobutyl)bis(3-sulfopropyl)ammonio)propane-1-sulfonate] | B (B: >0.5) | – | – | – |
| C[Si](C)(CCCNC(=O)COCC(=O)O)O[Si]1(O[Si](C)(C)CCCNC(=O)NCCS(=O)(=O)O)n2c3c4ccccc4c2N=C2N=C(N=c4c5ccccc5c(n41)=NC1=NC(=N3)c3ccccc31)c1ccccc12.N (stereo not drawn) [Example 7, Ammonium 2-(2-((3-(((19-((dimethyl(3-(3-(2-sulfonatoethyl)ureido)propyl)silyl)oxy)-19H-6,11-(azeno)-17,21-(azeno[1]episoindoloazeno)benzo[7,8][1,3,5,10]tetraaza[2]silacycloundecino[4,3-a:11,1-a′]diisoindol-19-yl)oxy)dimethylsilyl)propyl)amino)-2-oxoethoxy)acetate] | – | A (A: ≤1 μg/mL) | – | – |
| C[Si](C)(CCCNC(=O)COCC(=O)O)O[Si]1(O[Si](C)(C)CCCNC(=O)NCC(S(=O)(=O)O)S(=O)(=O)O)n2c3c4ccccc4c2N=C2N=C(N=c4c5ccccc5c(n41)=NC1=NC(=N3)c3ccccc31)c1ccccc12.N (stereo not drawn) [Example 8, Ammonium 2-(2-((3-(((19-(((3-(3-(2,2-disulfonatoethyl)ureido)propyl)dimethylsilyl)oxy)-19H-6,11-(azeno)-17,21-(azeno[1]episoindoloazeno)benzo[7,8][1,3,5,10]tetraaza[2]silacycloundecino[4,3-a:11,1-a′]diisoindol-19-yl)oxy)dimethylsilyl)propyl)amino)-2-oxoethoxy)acetate] | – | A (A: ≤1 μg/mL) | – | – |
| C[Si](C)(CCCNC(=O)CCCN(CCCS(=O)(=O)O)CCCS(=O)(=O)O)O[Si]1(O[Si](C)(C)CCCNC(=O)COCC(=O)O)n2c3c4ccccc4c2N=C2N=C(N=c4c5ccccc5c(n41)=NC1=NC(=N3)c3ccccc31)c1ccccc12.N (stereo not drawn) [Example 15, Ammonium 2-(2-((3-(((19-(((3-(4-(bis(3-sulfonatopropyl)ammonio)butanamido)propyl)dimethylsilyl)oxy)-19H-6,11-(azeno)-17,21-(azeno[1]episoindoloazeno)benzo[7,8][1,3,5,10]tetraaza[2]silacycloundecino[4,3-a:11,1-a′]diisoindol-19-yl)oxy)dimethylsilyl)propyl)amino)-2-oxoethoxy)acetate] | – | B (B: >1 μg/mL to ≤100 μg/mL) | – | – |
| C[Si](C)(CCC[N+](CCCCS(=O)(=O)O)(CCCCS(=O)(=O)O)CCCCS(=O)(=O)O)O[Si-2]123(O[Si](C)(C)CCC[N+](CCCCS(=O)(=O)O)(CCCCS(=O)(=O)O)CCOCCOCCOCCC(=O)O)n4c5c6ccccc6c4N=C4c6ccccc6C(=[N+]41)N=c1c4ccccc4c(n12)=NC1=[N+]3C(=N5)c2ccccc21.[Na+].[Na+].[Na+].[Na+] [Example 17, Sodium 2-((19-((dimethyl(3-(tris(4-sulfonatobutyl)ammonio)propyl)silyl)oxy)-19H-6,11-(azeno)-17,21-(azeno[3]episoindoloazeno)benzo[7,8][1,3,5,10]tetraaza[2]silacycloundecino[4,3-a:11,1-a′]diisoindol-19-yl)oxy)-2-methyl-6,6-bis(4-sulfonatobutyl)-9,12,15-trioxa-6-aza-2-silaoctadecan-6-ium-18-oate] | B (B: >0.5) | – | > 100 | – |
| C[Si](C)(CCC[N+](CCCCS(=O)(=O)[O-])(CCCCS(=O)(=O)[O-])CCCCS(=O)(=O)[O-])O[Si@@]1(O[Si](C)(C)CCC[N+](CCCCS(=O)(=O)[O-])(CCCCS(=O)(=O)[O-])CCOCCOCCC(=O)[O-])n2c3c4ccccc4c2/N=C2N=C(/N=c4/c5ccccc5/c(n41)=N/C1=NC(=N\3)/c3ccccc31)c1ccccc1\2.[Na+].[Na+].[Na+].[Na+] [Example 18, Sodium 2-((19-((dimethyl(3-(tris(4-sulfonatobutyl)ammonio)propyl)silyl)oxy)-19H-6,11-(azeno)-17,21-(azeno[3]episoindoloazeno)benzo[7,8][1,3,5,10]tetraaza[2]silacycloundecino[4,3-a:11,1-a′]diisoindol-19-yl)oxy)-2-methyl-6,6-bis(4-sulfonatobutyl)-9,12-dioxa-6-aza-2-silapentadecan-6-ium-15-oate] | B (B: >0.5) | – | > 100 | – |
| C[Si](C)(CCC[N+](CCCS(=O)(=O)[O-])(CCCS(=O)(=O)[O-])CCCS(=O)(=O)[O-])O[Si@@]1(O[Si](C)(C)CCC[N+](CCCS(=O)(=O)[O-])(CCCS(=O)(=O)[O-])CCOCCOCCOCCC(=O)[O-])n2c3c4ccccc4c2/N=C2N=C(/N=c4/c5ccccc5/c(n41)=N/C1=NC(=N\3)/c3ccccc31)c1ccccc1\2.[Na+].[Na+].[Na+].[Na+] [Example 19, Sodium 2-((19-((dimethyl(3-(tris(3-sulfonatopropyl)ammonio)propyl)silyl)oxy)-19H-6,11-(azeno)-17,21-(azeno[3]episoindoloazeno)benzo[7,8][1,3,5,10]tetraaza[2]silacycloundecino[4,3-a:11,1-a′]diisoindol-19-yl)oxy)-2-methyl-6,6-bis(3-sulfonatopropyl)-9,12,15-trioxa-6-aza-2-silaoctadecan-6-ium-18-oate] | B (B: >0.5) | – | > 100 | – |
